# Results from US20080287430A1, “Furan Compounds Useful As Ep1 Receptor Antagonists” (priority 2005, published 2008).
# Where a name gives a salt, the structure may show the parent alone.
# Biological target: T1, human EP1 receptor (Homo sapiens, UniProt P34995)
# T1 construct: expressed in transfected cells; host or cells: CHO-K1
# T1 sequence (P34995 1-402): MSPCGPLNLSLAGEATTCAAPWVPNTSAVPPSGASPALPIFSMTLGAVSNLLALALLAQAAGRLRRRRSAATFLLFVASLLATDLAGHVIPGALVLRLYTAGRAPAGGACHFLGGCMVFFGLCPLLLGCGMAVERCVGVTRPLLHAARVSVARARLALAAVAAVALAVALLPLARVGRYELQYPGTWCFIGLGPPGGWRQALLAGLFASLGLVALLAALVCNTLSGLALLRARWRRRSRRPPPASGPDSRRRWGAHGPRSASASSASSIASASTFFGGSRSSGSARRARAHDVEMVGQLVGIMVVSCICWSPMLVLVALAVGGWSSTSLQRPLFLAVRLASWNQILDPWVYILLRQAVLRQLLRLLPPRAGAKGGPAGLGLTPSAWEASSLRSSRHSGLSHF
# Assay: human EP1 calcium mobilisation assay
# Format: cell-based
# Conditions: human EP1, PGE2-induced calcium mobilisation in CHO-K1 cells; free bases or sodium salts; averages of a number of experiments; read-out: functional pKi value (converted)
# Protocol: Briefly, the antagonist properties of compounds are assessed by their ability to inhibit the mobilisation of intracellular calcium ([Ca^2+]i) in response to activation of EP1 or EP3 receptors by the natural agonist hormone prostaglandin E2 (PGE2). Increasing concentrations of antagonist reduce the amount of calcium that a given concentration of PGE2 can mobilise. The net effect is to displace the PGE2 concentration-effect curve to higher concentrations of PGE2. The amount of calcium produced is assessed using a calcium-sensitive fluorescent dye such as Fluo-4, AM and a suitable instrument such as a Fluorimetric Imaging Plate Reader (FLIPR). Increasing amounts of [Ca^2+]i produced by receptor activation increase the amount of fluorescence produced by the dye and give rise to an increasing signal. The signal may be detected using the FLIPR instrument and the data generated may be analysed with suitable curve-fitting software.
# The human EP1 or EP3 calcium mobilisation assay (hereafter referred to as ‘the calcium assay’) utilises Chinese hamster ovary-K1(CHO-K1) cells into which a stable (pCIN; BioTechniques 20 (1996): 102-110) vector containing either EP1 or EP3 cDNA has previously been transfected. Cells are cultured in suitable flasks containing culture medium such as DMEM:F-12 supplemented with 10% v/v foetal calf serum, 2 mM L-glutamine, 0.25 mg/ml geneticin, 100 μM flurbiprofen and 10 μg/ml puromycin.
# For assay, cells are harvested using a proprietary reagent that dislodges cells such as Versene. Cells are re-suspended in a suitable quantity of fresh culture media for introduction into a 384-well plate. Following incubation for 24 hours at 37° C. the culture media is replaced with a medium containing Fluo-4 and the detergent pluronic acid, and a further incubation takes place. Concentrations of compounds are then added to the plate in order to construct concentration-effect curves. This may be performed on the FLIPR in order to assess the agonist properties of the compounds. Concentrations of PGE2 are then added to the plate in order to assess the antagonist properties of the compounds.
# The data so generated may be analysed by means of a computerised curve-fitting routine. The concentration of compound that elicits a half-maximal inhibition of the calcium mobilisation induced by PGE2 (pIC50) may then be estimated.
row,Ki,Compound
1,< 1 µM,"O=C(c1ccc(Cc2cc(Cl)ccc2OCc2ccccc2)o1)n1cnc2ccccc21 [Example 77, 1-{[5-({5-Chloro-2-[(phenylmethyl)oxy]-phenyl}methyl)-2-furanyl]carbonyl}-1H-benzimidazole]"
2,< 1 µM,"CC(C)COc1ccc(Cl)cc1Cc1ccc(-c2nc3cc(C(C)(C)C)ccc3[nH]2)o1 [Example 127, 2-[5-({5-Chloro-2-[(2-methylpropyl)oxy]phenyl}-methyl)-2-furanyl]-5-(1,1-dimethylethyl)-1H-benzimidazole]"
3,< 1 µM,CC(C)COc1ccc(Cl)cc1Cc1ccc(-c2cc[nH]n2)o1 [Example 168]
4,< 1 µM,"CC(C)COc1ccc(Cl)cc1Cc1ccc(-c2nc3ccc(CNC(C)C)cc3[nH]2)o1 [Example 155, N-({2-[5-({5-Chloro-2-[(2-methylpropyl)oxy]-phenyl}methyl)-2-furanyl]-1H-benzimidazol-5-yl}methyl)-2-propanaminedihydrochloride]"
5,< 1 µM,"Fc1cc2nc(-c3ccc(Cc4cc(Cl)ccc4OCc4ccccc4)o3)[nH]c2cc1F [Example 129, 2-[5-({5-Chloro-2-[(phenylmethyl)oxy]phenyl}methyl)-2-furanyl]-5,6-difluoro-1H-benzimidazole]"
6,< 1 µM,"CC(C)COc1ccc(Cl)cc1Cc1ccc(-c2nc3ccc(CN(C)CC4CCOCC4)cc3[nH]2)o1 [Example 152, ({2-[5-({5-Chloro-2-[(2-methylpropyl)oxy]-phenyl}methyl)-2-furanyl]-1H-benzimidazol-5-yl}methyl)methyl(tetrahydro-2H-pyran-4-ylmethyl)aminedihydrochloride]"
7,< 1 µM,"CCN1CCN(c2ccc3nc(-c4ccc(Cc5cc(Cl)ccc5OCC(C)C)o4)[nH]c3c2)CC1 [Example 114, 2-[5-({5-Chloro-2-[(2-methylpropyl)oxy]-phenyl}methyl)-2-furanyl]-5-(4-ethyl-1-piperazinyl)-1H-benzimidazoletrihydrochloride]"
8,< 1 µM,"O=C(Nc1c(F)cccc1F)c1ccc(Cc2cc(Cl)ccc2OCc2ccc(Cl)cc2Cl)o1 [Example 89, 5-[(5-Chloro-2-{[(2,4-dichlorophenyl)methyl]-oxy}phenyl)methyl]-N-(2,6-difluorophenyl)-2-furancarboxamide]"
9,< 1 µM,"Clc1ccc(OCc2ccccc2)c(Cc2ccc(-c3nc4nccnc4[nH]3)o2)c1 [Example 102, 2-[5-({5-Chloro-2-[(phenylmethyl)oxy]phenyl}methyl)-2-furanyl]-1H-imidazo[4,5-b]pyrazine]"
10,< 1 µM,"Clc1ccc(OCc2ccccc2)c(Cc2ccc(-c3nnc[nH]3)o2)c1 [Example 169, 3-[5-({5-Chloro-2-[(phenylmethyl)oxy]phenyl}methyl)-2-furanyl]-1H-1,2,4-triazole]"
11,< 1 µM,"CC(C)COc1ccc(Cl)cc1Cc1ccc(C(=O)Nc2c(F)cccc2F)o1 [Example 80, 5-({5-Chloro-2-[(2-methylpropyl)oxy]-phenyl}methyl)-N-(2,6-difluorophenyl)-2-furancarboxamide]"
12,< 1 µM,"O=C(Nc1c(F)cccc1F)c1ccc(Cc2cc(Cl)ccc2OCc2ccccc2F)o1 [Example 81, 5-[(5-Chloro-2-{[(2-fluorophenyl)methyl]oxy}phenyl)methyl]-N-(2,6-difluorophenyl)-2-furancarboxamide]"
13,< 1 µM,"Clc1ccc(OCc2ccccc2)c(Cc2ccc(-c3nc4ccc(CN5CCCCC5)cc4[nH]3)o2)c1 [Example 141, 2-[5-({5-Chloro-2-[(phenylmethyl)oxy]-phenyl}methyl)-2-furanyl]-5-(1-piperidinylmethyl)-1H-benzimidazoledihydrochloride]"
14,< 1 µM,"CC(C)COc1ccc(Cl)cc1Cc1ccc(-c2nc3ccc(F)c(F)c3[nH]2)o1 [Example 128, 2-[5-({5-Chloro-2-[(2-methylpropyl)oxy]phenyl}-methyl)-2-furanyl]-4,5-difluoro-1H-benzimidazole]"
15,< 1 µM,"CCC(CC)COc1ccc(Cl)cc1Cc1ccc(C(=O)Nc2c(F)cccc2F)o1 [Example 97, 5-({5-Chloro-2-[(2-ethylbutyl)oxy]phenyl}meth-yl)-N-(2,6-difluorophenyl)-2-furancarboxamide]"
16,< 1 µM,"O=C(Nc1c(F)cccc1F)c1ccc(Cc2cc(Cl)ccc2OCc2ccc(Cl)cc2)o1 [Example 90, 5-[(5-Chloro-2-{[(4-chlorophenyl)methyl]oxy}-phenyl)methyl]-N-(2,6-difluorophenyl)-2-furancarboxamide]"

# More lines, now with the values behind:
row,Compound,Ki
1,"O=C(O)c1ccc(Cc2cc(Cl)ccc2OCc2ccncc2)o1 [Example 28, Sodium 5-({5-chloro-2-[(4-pyridinylmethyl)oxy]phenyl}methyl)-2-furancarboxylate]",≤ 0.01 µM
2,"CC(C)COc1ccc(Cl)cc1Cc1ccc(C(=O)NCc2cccc(F)c2F)o1 [Example 44, 5-({5-Chloro-2-[(2-methylpropyl)oxy]phenyl}methyl)-N-[(2,3-difluorophenyl)methyl]-2-furancarboxamide]",< 1 µM
3,"CC(C)COc1ccc(Cl)cc1Cc1ccc(C(N)=O)o1 [Example 68, 5-({5-Chloro-2-[(2-methylpropyl)oxy]-phenyl}methyl)-2-furancarboxamide]",< 1 µM
4,"O=C(Nc1ccccc1Cl)c1ccc(Cc2cc(Cl)ccc2OCc2ccccc2)o1 [Example 72, N-(2-chlorophenyl)-5-({5-chloro-2-[(phenylmethyl)oxy]-phenyl}methyl)-2-furancarboxamide]",< 1 µM
5,"CC(C)COc1ccc(Cl)cc1Cc1ccc(C(=O)NC(C)(C)C)o1 [Example 56, 5-({5-Chloro-2-[(2-methylpropyl)oxy]-phenyl}methyl)-N-(1,1-dimethylethyl)-2-furancarboxamide]",< 1 µM
6,"CC(C)COc1ccc(Cl)cc1Cc1ccc(C(=O)NCc2ccc(C#N)cc2)o1 [Example 42, 5-({5-Chloro-2-[(2-methylpropyl)oxy]phenyl}methyl)-N-[(4-cyanophenyl)methyl]-2-furancarboxamide]",< 1 µM
7,"Cc1cc(COc2ccc(Cl)cc2Cc2ccc(C(=O)O)o2)on1 [Example 9, Sodium 5-[(5-chloro-2-{[(3-methyl-5-isoxazolyl)methyl]oxy}phenyl)methyl]-2-furancarboxylate]",< 1 µM
8,"Cc1cc(C(=O)NCc2ccccc2)oc1Cc1cc(Cl)ccc1OCC(C)C [Example 32, 5-({5-Chloro-2-[(2-methylpropyl)oxy]phenyl}methyl)-4-methyl-N-(phenylmethyl)-2-furancarboxamide]",< 1 µM
9,"CN(C)c1ccc(CNC(=O)c2ccc(Cc3cc(Cl)ccc3OCc3ccccc3)o2)cc1 [Example 54, 5-({5-Chloro-2-[(phenylmethyl)oxy]phenyl}methyl)-N-{[4-(dimethylamino)phenyl]methyl}-2-furancarboxamide]",< 1 µM
10,"CC(C)COc1ccc(Cl)cc1Cc1ccc(C(=O)NC(C)C)o1 [Example 55, 5-({5-Chloro-2-[(2-methylpropyl)oxy]phenyl}methyl)-N-(1-methylethyl)-2-furancarboxamide]",< 1 µM
11,CC(C)COc1ccc(Cl)cc1Cc1ccc(C(=O)NCc2ccc(F)cc2)o1 [Example 37],< 1 µM
12,"Cc1cccc(C)c1NC(=O)c1ccc(Cc2cc(Cl)ccc2OCc2ccccc2)o1 [Example 71, 5-({5-Chloro-2-[(phenylmethyl)oxy]-phenyl}methyl)-N-(2,6-dimethylphenyl)-2-furancarboxamide]",< 1 µM
13,"O=C(O)c1ccc(Cc2cc(Cl)ccc2OCc2ccccn2)o1 [Example 26, Sodium 5-({5-chloro-2-[(2-pyridinylmethyl)oxy]phenyl}methyl)-2-furancarboxylate]",≤ 0.01 µM
14,"O=C(O)c1ccc(Cc2cc(Cl)ccc2OCc2cccnc2)o1 [Example 27, Sodium 5-({5-chloro-2-[(3-pyridinylmethyl)oxy]phenyl}methyl)-2-furancarboxylate]",< 1 µM
15,"CC(C)COc1ccc(Cl)cc1Cc1ccc(C(=O)NCc2ccc(-c3cccnc3)cc2)o1 [Example 45, 5-({5-Chloro-2-[(2-methylpropyl)oxy]phenyl}methyl)-N-{[4-(3-pyridinyl)phenyl]methyl}-2-furancarboxamide]",< 1 µM
